Data: PubChem BioAssay AID1259407 (Chemical Carcinogenesis Research Information System (CCRIS), 2018)
The source made the active and inactive calls. No rule for the calls is given here.

Test system: CCRIS mutagenicity, Ames/micronucleus/aberration tests
Test: CCRIS mutagenicity studies
[1] = Test System: AMES SALMONELLA TYPHIMURIUM, Strain/Indicator: TA98, Metabolic Activation: NONE, Method: STANDARD PLATE
[2] = Test System: AMES SALMONELLA TYPHIMURIUM, Strain/Indicator: TA98, Metabolic Activation: RAT, LIVER, S-9, AROCLOR 1254, Method: STANDARD PLATE
[3] = Test System: AMES SALMONELLA TYPHIMURIUM, Strain/Indicator: TA100, Metabolic Activation: NONE, Method: STANDARD PLATE
[4] = Test System: AMES SALMONELLA TYPHIMURIUM, Strain/Indicator: TA100, Metabolic Activation: RAT, LIVER, S-9, AROCLOR 1254, Method: STANDARD PLATE
[5] = Test System: AMES SALMONELLA TYPHIMURIUM, Strain/Indicator: TA98, Metabolic Activation: NONE, Method: PREINCUBATION
[6] = Test System: AMES SALMONELLA TYPHIMURIUM, Strain/Indicator: TA100, Metabolic Activation: NONE, Method: PREINCUBATION
[7] = Test System: AMES SALMONELLA TYPHIMURIUM, Strain/Indicator: TA1535, Metabolic Activation: NONE, Method: PREINCUBATION
[8] = Test System: AMES SALMONELLA TYPHIMURIUM, Strain/Indicator: TA1537, Metabolic Activation: NONE, Method: PREINCUBATION

O=S(=O)(Nc1ccc(Cl)cc1Cl)c1cccc2cccnc12
mutagenic call [1]: inactive; negative
mutagenic call [2]: inactive; negative
mutagenic call [3]: inactive; negative
mutagenic call [4]: inactive; negative
mutagenic call (Test System: AMES SALMONELLA TYPHIMURIUM, Strain/Indicator: TA1535, Metabolic Activation: NONE, Method: STANDARD PLATE): inactive; negative
mutagenic call (Test System: AMES SALMONELLA TYPHIMURIUM, Strain/Indicator: TA1535, Metabolic Activation: RAT, LIVER, S-9, AROCLOR 1254, Method: STANDARD PLATE): inactive; negative
mutagenic call (Test System: AMES SALMONELLA TYPHIMURIUM, Strain/Indicator: TA1537, Metabolic Activation: NONE, Method: STANDARD PLATE): inactive; negative
mutagenic call (Test System: AMES SALMONELLA TYPHIMURIUM, Strain/Indicator: TA1537, Metabolic Activation: RAT, LIVER, S-9, AROCLOR 1254, Method: STANDARD PLATE): inactive; negative

CC(C)C(N)C(=O)O (centres undefined)
mutagenic call (Test System: AMES SALMONELLA TYPHIMURIUM, Strain/Indicator: TA98, Metabolic Activation: RAT LIVER S-9, CHLOROPHENE, Method: STANDARD PLATE (COMPOUND HEATED AT 250 DEGREES CELSIUS FOR 20 MIN)): inactive; negative

O=[N+]([O-])c1ccc(I)c([N+](=O)[O-])c1
mutagenic call (Test System: AMES SALMONELLA TYPHIMURIUM, Strain/Indicator: TA98(1,8-DNP6), Metabolic Activation: NONE, Method: PREINCUBATION): active; positive
mutagenic call (Test System: AMES SALMONELLA TYPHIMURIUM, Strain/Indicator: TA98(NR), Metabolic Activation: NONE, Method: PREINCUBATION): active; positive
mutagenic call [5]: active; positive

N#C/C(=C/C=C/c1ccccc1[N+](=O)[O-])c1ccc(Br)cc1
mutagenic call (Test System: AMES SALMONELLA TYPHIMURIUM, Strain/Indicator: TA97A, Metabolic Activation: NONE, Method: STANDARD PLATE): active; positive
mutagenic call [3]: active; positive

CN1CCN(c2ccc3nc(CCc4ccc5nc(-c6ccc(N(CCCl)CCCl)cc6)[nH]c5c4)[nH]c3c2)CC1
mutagenic call [1]: inactive; negative
mutagenic call [3]: inactive; negative
mutagenic call (Test System: AMES SALMONELLA TYPHIMURIUM, Strain/Indicator: TA102, Metabolic Activation: NONE, Method: STANDARD PLATE): active; positive

O[C@@H]1c2ccccc2-c2ccc3ccccc3c2[C@H]1O
mutagenic call [1]: inactive; negative
mutagenic call [2]: inactive; negative
mutagenic call [3]: inactive; negative
mutagenic call [4]: inactive; negative

CC(C)CC(C)N (centres undefined)
mutagenic call (Test System: AMES SALMONELLA TYPHIMURIUM, Strain/Indicator: TA98, Metabolic Activation: HAMSTER, LIVER, S-9, AROCLOR 1254 (10%), Method: PREINCUBATION): inactive; negative
mutagenic call [5]: inactive; negative
mutagenic call (Test System: AMES SALMONELLA TYPHIMURIUM, Strain/Indicator: TA98, Metabolic Activation: RAT, LIVER, S-9, AROCLOR 1254 (10%), Method: PREINCUBATION): inactive; negative
mutagenic call (Test System: AMES SALMONELLA TYPHIMURIUM, Strain/Indicator: TA100, Metabolic Activation: HAMSTER, LIVER, S-9, AROCLOR 1254 (10%), Method: PREINCUBATION): inactive; negative
mutagenic call [6]: inactive; negative
mutagenic call (Test System: AMES SALMONELLA TYPHIMURIUM, Strain/Indicator: TA100, Metabolic Activation: RAT, LIVER, S-9, AROCLOR 1254 (10%), Method: PREINCUBATION): inactive; negative
mutagenic call (Test System: AMES SALMONELLA TYPHIMURIUM, Strain/Indicator: TA1535, Metabolic Activation: HAMSTER, LIVER, S-9, AROCLOR 1254 (10%), Method: PREINCUBATION): inactive; negative
mutagenic call [7]: inactive; negative
mutagenic call (Test System: AMES SALMONELLA TYPHIMURIUM, Strain/Indicator: TA1535, Metabolic Activation: RAT, LIVER, S-9, AROCLOR 1254 (10%), Method: PREINCUBATION): inactive; negative
mutagenic call (Test System: AMES SALMONELLA TYPHIMURIUM, Strain/Indicator: TA1537, Metabolic Activation: HAMSTER, LIVER, S-9, AROCLOR 1254 (10%), Method: PREINCUBATION): inactive; negative
mutagenic call [8]: inactive; negative
mutagenic call (Test System: AMES SALMONELLA TYPHIMURIUM, Strain/Indicator: TA1537, Metabolic Activation: RAT, LIVER, S-9, AROCLOR 1254 (10%), Method: PREINCUBATION): inactive; negative

O[C@H]1[C@H]2O[C@H]2c2ccc3c(ccc4ccccc43)c2[C@@H]1O
mutagenic call [5]: active; positive
mutagenic call (Test System: CHINESE HAMSTER V-79, Strain/Indicator: V-79/6-THIOGUANINE, Metabolic Activation: NONE): active; positive

[N-]=[N+]=NC[C@H]1O[C@H](O)[C@@H](O)[C@@H](O)[C@@H]1O
mutagenic call [1]: inactive; negative
mutagenic call [3]: active; positive

N#Cc1nn(-c2c(Cl)cc(C(F)(F)F)cc2Cl)c(N)c1S(=O)C(F)(F)F (centres undefined)
mutagenic call (End Point: Ames Salmonella typhimurium, Test System: TA98, Metabolic Activation: None, Method: Plate incorporation): inactive; negative
mutagenic call (End Point: Ames Salmonella typhimurium, Test System: TA98, Metabolic Activation: Rat, Liver, S-9, Aroclor 1254, Method: Plate incorporation): inactive; negative
mutagenic call (End Point: Ames Salmonella typhimurium, Test System: TA100, Metabolic Activation: None, Method: Plate incorporation): inactive; negative
mutagenic call (End Point: Ames Salmonella typhimurium, Test System: TA100, Metabolic Activation: Rat, Liver, S-9, Aroclor 1254, Method: Plate incorporation): inactive; negative
mutagenic call (End Point: Ames Salmonella typhimurium, Test System: TA1535, Metabolic Activation: None, Method: Plate incorporation): inactive; negative
mutagenic call (End Point: Ames Salmonella typhimurium, Test System: TA1535, Metabolic Activation: Rat, Liver, S-9, Aroclor 1254, Method: Plate incorporation): inactive; negative
mutagenic call (End Point: Ames Salmonella typhimurium, Test System: TA1537, Metabolic Activation: None, Method: Plate incorporation): inactive; negative
mutagenic call (End Point: Ames Salmonella typhimurium, Test System: TA1537, Metabolic Activation: Rat, Liver, S-9, Aroclor 1254, Method: Plate incorporation): inactive; negative
mutagenic call (End Point: In vitro chromosomal aberrations, Test System: Human lymphocytes (male and female), Metabolic Activation: None): inactive; negative
mutagenic call (End Point: In vitro chromosomal aberrations, Test System: Human lymphocytes (male and female), Metabolic Activation: Rat, Liver, S-9, Aroclor 1254): inactive; negative
mutagenic call (End Point: In vivo micronucleus, Test System: Bone marrow polychromatic erythrocytes, Species: Mouse, Strain/Sex: CD-1/Male and female, Route: Oral): inactive; negative
mutagenic call (Test System: HGPRT mutations, Strain/Indicator: Chinese hamster V79 cells, Metabolic Activation: None): inactive; negative
mutagenic call (Test System: HGPRT mutations, Strain/Indicator: Chinese hamster V79 cells, Metabolic Activation: Rat, Liver, S-9, Aroclor 1254): inactive; negative

Nc1ccc(N)c(S(=O)(=O)O)c1
mutagenic call [5]: inactive; negative
mutagenic call (Test System: AMES SALMONELLA TYPHIMURIUM, Strain/Indicator: TA98, Metabolic Activation: RAT, LIVER, S-9, AROCLOR 1254, Method: PREINCUBATION): inactive; negative
mutagenic call [6]: inactive; negative
mutagenic call (Test System: AMES SALMONELLA TYPHIMURIUM, Strain/Indicator: TA100, Metabolic Activation: RAT, LIVER, S-9, AROCLOR 1254, Method: PREINCUBATION): inactive; negative
mutagenic call (Test System: UDS RODENT HEPATOCYTES, Strain/Indicator: THY INCORP (NON-S-PHASE), Metabolic Activation: NONE, Method: AUTORADIOGRAPHY): active; positive

O=[N+]([O-])c1ccc(CN2C3c4ccccc4-c4ccccc4C32)cc1 (centres undefined)
mutagenic call [3]: active; positive

O=C(Nc1nc(-c2ccc([N+](=O)[O-])o2)cs1)C(F)(F)F
mutagenic call (Test System: AMES SALMONELLA TYPHIMURIUM, Strain/Indicator: TA100, Metabolic Activation: RAT, LIVER, S-9, KC500 OR PHENOBARBITAL, Method: LIQUID SUSPENSION): active; positive
mutagenic call (Test System: E. COLI WP2, Strain/Indicator: WP2, Metabolic Activation: NONE, Method: SPOT): active; positive

Nc1ccc(O)c(C(=O)O)c1
mutagenic call [5]: inactive; negative
mutagenic call (Test System: AMES SALMONELLA TYPHIMURIUM, Strain/Indicator: TA98, Metabolic Activation: S-9, Method: PREINCUBATION): inactive; negative
mutagenic call [6]: inactive; negative
mutagenic call (Test System: AMES SALMONELLA TYPHIMURIUM, Strain/Indicator: TA100, Metabolic Activation: S-9, Method: PREINCUBATION): inactive; negative
mutagenic call [7]: inactive; negative
mutagenic call (Test System: AMES SALMONELLA TYPHIMURIUM, Strain/Indicator: TA1535, Metabolic Activation: S-9, Method: PREINCUBATION): inactive; negative
mutagenic call [8]: inactive; negative
mutagenic call (Test System: AMES SALMONELLA TYPHIMURIUM, Strain/Indicator: TA1537, Metabolic Activation: S-9, Method: PREINCUBATION): inactive; negative
mutagenic call (Test System: E. COLI, Strain/Indicator: WP2 UVRA, Metabolic Activation: NONE, Method: PREINCUBATION): inactive; negative
mutagenic call (Test System: E. COLI, Strain/Indicator: WP2 UVRA, Metabolic Activation: S-9, Method: PREINCUBATION): inactive; negative

O=c1c2cccc3ccc4cccc1c4c32
mutagenic call [4]: active; positive
